{"source": "patent US7462592B2", "about": "“Compositions and methods for polynucleotide delivery” (Novartis Vaccines and Diagnostics, Inc., priority 1996, dated 2008)", "key": {"HT1080 and 293 cells": {"tested_on": "HT1080 and 293 cells", "test": "Effect of chloroquine on transfection (FIG. 9)", "assay_type": "cell-based, human", "settings": "presence or absence of chloroquine", "method": "FIG. 9 illustrates the effect of chloroquine on transfection with RZ145-1 in (A) 293 cells and (B) HT1080 cells. The cells were transfected in the presence (black bar) or absence (stippled bar) of 100 uM chloroquine. Cells were lysed 48 hours post transfection and luciferase activity and total protein content were measured.\nTo determine whether chloroquine affected transfection mediated by polycationic agents of the present invention, HT1080 and 293 cells were transfected using RZ145-1 in the presence and absence of chloroquine. As a control, the same cell lines were transfected with polylysine both in the presence and absence of chloroquine. […] In contrast, polylysine-mediated transfection in the absence of chloroquine was 100-fold lower than polylysine mediated transfection in the presence of chloroquine."}, "[1]": {"settings": "Coulter N4MD submicron analyzer; Lee et al., 1996; cited from earlier work"}}}
{"substance": "polylysine [reference compound]", "values": [{"measurement": "transfection in the absence of chloroquine relative to presence of chloroquine, fold lower", "setting": "HT1080 and 293 cells", "value": 100, "unit": "fold"}, {"measurement": "mean diameter of particles of condensed polynucleotide", "setting": "[1]", "value": "50-200 nm"}]}
